Results published in patent publication US4766133A, “(Bezimidazol-2-yl)-pyridinium compounds” (priority 1985, dated 1988).
Like-named read-outs stand apart in the source and are kept apart here.

Tests used:
[1] = acute toxicity (single oral administration to mice); conditions: mouse, in vivo, read-out: Toxicity, LD 50
Source text: In the following Table there are given for a series of representative compounds of formula I the results of the testing with respect to their anti-ulcer activity and to their gastric secretion-inhibiting activity. Moreover, this Table contains data concerning the acute toxicity (LD50 in the case of single oral administration to mice).

[2] = test system: gastric acid secretion stimulated by 4-methylhistamine; test: gastric acid secretion-inhibiting activity (Heidenhain type pouch, 4-methylhistamine stimulated); type: in vivo, beagle hounds (dog); conditions: Canis lupus familiaris, read-out: Gastric acid secretion-inhibition, ED50
Description: The experimental procedure described hereinafter was used to determine the gastric acid secretion-inhibiting activity:
In the pouch there is fitted a steel cannula which is conducted externally through the abdominal wall. Before each experiment the animals receive no food for 18 hours, but receive water ad libitum. They are conscious and standing during the experiment and their gastric acid secretion is stimulated by the intravenous infusion of 4-methylhistamine, a selective agonist of the histamine H2 -receptors. The gastric acid production is determined in 15 minute fractions of the stomach pouch juioe. As soon as the gastric acid production has a constant value, the substances to be tested are administered orally as a dry powder filled into gelatine capsules.

[3] = test system: indomethacin-induced lesions of the stomach; test: anti-ulcer activity (indomethacin-induced lesions of the stomach); type: in vivo; conditions: Rattus norvegicus, po, read-out: Anti-ulcer, ED50
Description: The experimental procedure described hereinafter was used to determine the anti-ulcer activity:
Groups each comprising 8 male rats with a body weight of 130-150 g are used for each dosage of a test substance. Before the beginning of the experiment the animals receive no food for 24 hours, but receive water ad libitum. Various dosages of the substances to be tested (suspended in 0.5% tragacanth) or the vehicle alone (controls) are administered twice perorally, namely 1 hour before and 2 hours after the peroral administration of 20 mg/kg of indomethacin. […] The animals are killed 6 hours after the first administration of the substanoe under investigation (or of the vehicle alone). The rats which remain protected from the occurrence of macroscopically visible lesions to the mucous membrane of the stomach are counted.

[4] = conscious beagle hounds, Heidenhain type pouch, 4-methylhistamine i.v. infusion, oral dry powder in gelatine capsules, 50% inhibition
[5] = male rats, p.o. twice, 1 h before and 2 h after 20 mg/kg indomethacin p.o., 50% of animals protected from lesions

Row | SMILES | LD50 [1] | ED50 [2, 4] | ED50 [3, 5] | ED50 ([2]; po) | ED50 [3]
1 | COc1cc[n+](-c2nc3ccc(C(F)(F)F)cc3[nH]2)c(CSSC[C@H](N)C(=O)O)c1C.[Cl-] [B, 2-[[[(R)-2-Amino-2-carboxyethyl]dithio]methyl]-4-methoxy-3-methyl-1-[5-(trifluoromethyl)-2-benzimidazolyl]pyridinium chloride] | 1250 to 2500 mg/kg | 2.8 mg/kg | 2.5 mg/kg |  | 
2 | COc1cc[n+](-c2nc3cc4c(cc3[nH]2)C(C)(C)C(=O)C4(C)C)c(CSSCCC(N)C(=O)O)c1C.[Cl-] (racemic) [P, 2-[[[(RS)-3-Amino-3-carboxypropyl]dithio]methyl]-4-methoxy-3-methyl-1-(1,5,6,7-tetrahydro-5,5,7,7-tetramethyl-6-oxoindeno[5,6-d]imidazol-2-yl)pyridinium chloride] | 312 to 625 mg/kg | 4.1 mg/kg | 1.9 mg/kg |  | 
3 | COc1cc[n+](-c2nc3cc4c(cc3[n-]2)C(C)(C)C(=O)C4(C)C)c(CSSCCN(C)C)c1C [N] |  |  |  | 3.7 mg/kg | 1.5 mg/kg
4 | CCCCCCSSCc1c(C)c(OC)cc[n+]1-c1nc2ccc(C(F)(F)F)cc2[nH]1.[Cl-] [D, 2-[(Hexyldithio)methyl]-4-methoxy-3-methyl-1-[5-(trifluoromethyl) -2-benzimidazolyl]pyridinium chloride] | > 5000 mg/kg | 6.8 mg/kg | 1.9 mg/kg |  | 
5 | CCCSSCc1c(C)c(OC)cc[n+]1-c1nc2ccc(C(F)(F)F)cc2[nH]1.[Cl-] [A, 2-[(propyldithio)methyl]-4-methoxy-3-methyl-1-[5-(trifluoromethyl)-2-benzimidazolyl]pyridinium chloride] | > 5000 mg/kg | 1.5 mg/kg | 1.2 mg/kg |  | 
6 | COc1cc[n+](-c2nc3cc4c(cc3[nH]2)C(C)(C)C(=O)C4(C)C)c(CSSC2CCCC2)c1C.[Cl-] [Q, 2-[(Cyclopentyldithio)methyl]-4-methoxy-3-methyl-1-(1,5,6,7-tetrahydro-5,5,7,7-tetramethyl-6-oxoindeno[5,6-d]imidazol-2-yl)pyridinium chloride] | 312 to 625 mg/kg | 4.9 mg/kg | 1.6 mg/kg |  | 
7 | CCOC(=O)[C@@H](N)CSSCc1c(C)c(OC)cc[n+]1-c1nc2cc3c(cc2[nH]1)C(C)(C)C(=O)C3(C)C.[Cl-] [M, 2-[[[(R)-2-Amino-2-(ethoxycarbonyl)ethyl]dithio]methyl]-4-methoxy-3-methyl-1-(1,5,6,7-tetrahydro-5,5,7,7-tetramethyl-6-oxoindeno[5,6-d]imidazol-2-yl)pyridinium chloride] | 312 to 625 mg/kg | 4.6 mg/kg | 1.6 mg/kg |  | 
8 | CCSSCc1c(C)c(OC)cc[n+]1-c1nc2ccc(C(F)(F)F)cc2[nH]1.[Cl-] [F, 2-[(Ethyldithio)methyl]-4-methoxy-3-methyl-1-[5-(trifluoromethyl)-2-benzimidazolyl]pyridinium chloride] | 1250 to 2500 mg/kg | 1.6 mg/kg | 1.7 mg/kg |  | 
9 | COc1cc[n+](-c2nc3ccc(C(F)(F)F)cc3[nH]2)c(CSSc2ccccc2Cl)c1C.[Cl-] [E, 2-[[(o-Chlorophenyl)dithio]methyl]-4-methoxy-3-methyl-1-[5-(trifluoromethyl)-2-benzimidazolyl]pyridinium chloride] | > 5000 mg/kg | 6 mg/kg | 2.1 mg/kg |  | 
10 | CCCSSCc1c(C)c(OC)cc[n+]1-c1nc2cc3c(cc2[nH]1)C(C)(C)C(=O)C3(C)C.[Cl-] [L, 4-Methoxy-3-methyl-2-[(propyldithio)methyl]-1-(1,5,6,7-tetrahydro-5,5,7,7-tetramethyl-6-oxoindeno[5,6-d]-imidazol-2-yl)pyridinium chloride] | 312 to 625 mg/kg | 3.4 mg/kg | 1.6 mg/kg |  | 
11 | COc1cc[n+](-c2nc3cc4c(cc3[nH]2)C(C)(C)C(=O)C4(C)C)c(CSSC[C@H](N)C(=O)O)c1C.[Cl-] [I, 2-[[[(R)-2-Amino-2-carboxyethyl]dithio]methyl]-4-methoxy-3-methyl-1-(1,5,6,7-tetrahydro-5,5,7,7-tetramethyl-6-oxoindeno[5,6-d]imidazol-2-yl)pyridinium chloride] | 312 to 625 mg/kg | 3.9 mg/kg | 2.3 mg/kg |  | 
12 | COc1cc[n+](-c2nc3cc4c(cc3[nH]2)C(C)(C)C(=O)C4(C)C)c(CSSCCO)c1C.[Cl-] [O, 2-[[(2-Hydroxyethyl)dithio]methyl]-4-methoxy-3-methyl-1-(1,5,6,7-tetrahydro-5,5,7,7-tetramethyl-6-oxoindeno[5,6-d]imidazol-2-yl)pyridinium chloride] | 312 to 625 mg/kg | 2.9 mg/kg | 2.3 mg/kg |  | 
13 | COc1cc[n+](-c2nc3cc4c(cc3[nH]2)C(C)(C)C(=O)C4(C)C)c(CSSc2cccc(Cl)c2)c1C [H, 2-[[(m-Chlorophenyl)dithio]methyl]-4-methoxy-3-methyl-1-(1,5,6,7-tetrahydro-5,5,7,7-tetramethyl-6-oxoindeno[5,6d]imidazol-2-yl)pyridinium chloride] | 1250 to 2500 mg/kg | 6.2 mg/kg | 1.8 mg/kg |  | 
14 | COc1cc[n+](-c2nc3cc(C(F)(F)F)ccc3[nH]2)c(CSSCCN)c1C [G, 2-[[(2-Aminoethyl)dithio]methyl]-4-methoxy-3-methyl-b 1-[5-(trifluoromethyl)-2-benzimidazolyl]pyridinium chloride] | 312 to 625 mg/kg | 1.5 mg/kg | 2.3 mg/kg |  | 
15 | COc1cc[n+](-c2nc3cc(C(F)(F)F)ccc3[nH]2)c(CSSC[C@H](NC(=O)CC[C@H](N)C(=O)O)C(=O)NCC(=O)O)c1C [C, 2-[[[(R)-2-[(S)-4-Amino-4-carboxybutyramido]-2-[(carboxymethyl)carbamoyl]ethyl]dithio]methyl]-4-methoxy-3-methyl-1-[(5-trifluoromethyl)-2-benzimidazolyl]pyridinium chloride] | 1250 to 2500 mg/kg | 3 mg/kg | 3 mg/kg |  | 
16 | CCOC(=O)CC(SSCc1c(C)c(OC)cc[n+]1-c1nc2ccc(C(F)(F)F)cc2[nH]1)C(=O)OCC.[Cl-] (centres unmarked) [J, 2-[[[1,2-Bis-(ethoxycarbonyl)ethyl]dithio]methyl]-4-methoxy-3-methyl-1-[5-(trifluoromethyl)-2-benzimidazolyl]pyridinium chloride] | 1250 to 2500 mg/kg | 2.2 mg/kg | 2.4 mg/kg |  | 
17 | CCSSCc1c(C)c(OC)cc[n+]1-c1nc2cc3c(cc2[nH]1)C(C)(C)C(=O)C3(C)C.[Cl-] [K, 2-[(Ethyldithio)methyl]-4-methoxy-3-methyl-1-(1,5,6,7-tetrahydro-5,5,7,7-tetramethyl-6-oxoindeno[5,6-d]-imidazol-2-yl)pyridinium chloride] | 312 to 625 mg/kg | 6.5 mg/kg | 2.3 mg/kg |  | 
